The target in one assay is T1, RORγ-LBD (Homo sapiens, UniProt P51449).
T1 construct: made in house; host or cells: SF9 cells (baculovirus); used as diluted lysate
T1 sequence (P51449 269-508 limits assumed): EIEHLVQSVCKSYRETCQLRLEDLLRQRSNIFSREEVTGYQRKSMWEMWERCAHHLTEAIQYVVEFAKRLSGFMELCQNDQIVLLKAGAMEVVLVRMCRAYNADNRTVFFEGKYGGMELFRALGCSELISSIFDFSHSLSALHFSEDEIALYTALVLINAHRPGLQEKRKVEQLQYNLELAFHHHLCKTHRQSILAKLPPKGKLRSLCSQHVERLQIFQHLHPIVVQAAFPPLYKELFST
Nature of the assay: RORγ-Ligand Binding Domain (LBD) TR-FRET Assay. The class given is biochemical. Particulars: RORγ-LBD TR-FRET. The gist of the method:
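His-tagged RORγ-LBD from SF9 baculovirus lysate, ~3 nM final, in 50 mM Tris pH 7.0, 50 mM KCl, 1 mM EDTA, 0.1 mM DTT, 0.01% BSA. Biotinylated SRC1 LXXLL peptide at 200 nM final with 2 μM ursolic acid; TR-FRET read-out, 1% DMSO final.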
For orientation: TR-FRET usually uses a lanthanide donor and a delayed reading to cut background.

The target in the next assay is T2, Gal4-RORγ-LBD (Homo sapiens, UniProt P51449).
T2 construct: expressed in transfected cells
T2 sequence (P51449 269-508 limits assumed): T1 sequence (P51449 269-508 limits assumed)
Nature of the assay: Gal4-RORγ Luciferase Reporter Assay in HEK-293T Cells. Particulars: HEK-293 cells, luciferase reporter, with ursolic acid. The class given is cell-based. The gist of the method:
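HEK-293 cells were co-transfected with Gal4-RORγ-LBD and a Gal4-luciferase reporter, then exposed overnight at 37 °C to compounds with […] ursolic acid present (0.2% DMSO). Luminescence was read with One-Glo after 10 min at RT, untreated signal was set as 100, and Max Response was taken as the upper plateau of a 4-parameter logistic fit.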

The structures appear in SMILES notation.

Broadly, the EC50 is the concentration giving half of the maximal effect. A high value points to weaker potency. As to `CCOc1nn(CC)cc1S(=O)(=O)N1C[C@H](CCC(=O)O)Oc2ccc(/C=C/c3cccnc3)cc21` [Example 89I, (S,E)-3-(4-((3-ethoxy-1-ethyl-1H-pyrazol-4-yl)sulfonyl)-6-(2-(pyridin-3-yl)vinyl)-3,4-dihydro-2H-benzo[b][1,4]oxazin-2-yl)propanoic acid], the EC50 on RORγ-LBD and on Gal4-RORγ-LBD was above 10 µM in each case.
For the compound `CCOc1nn(CC)cc1S(=O)(=O)N1C[C@H](CCC(=O)OC)Oc2ccc(/C=C/c3cccnc3)cc21` [Example 89J, (S,E)-methyl 3-(4-((3-ethoxy-1-ethyl-1H-pyrazol-4-yl)sulfonyl)-6-(2-(pyridin-3-yl)vinyl)-3,4-dihydro-2H-benzo[b][1,4]oxazin-2-yl)propanoate], the EC50 on RORγ-LBD is 0.5 to 5 µM; at Gal4-RORγ-LBD it was above 10 µM.
For `CCOc1nn(CC)cc1S(=O)(=O)N1C[C@H](CCC(=O)O)Oc2ccc(/C=C/c3ccsc3)cc21` [Example 89K, (S,E)-3-(4-((3-ethoxy-1-ethyl-1H-pyrazol-4-yl)sulfonyl)-6-(2-(thiophen-3-yl)vinyl)-3,4-dihydro-2H-benzo[b][1,4]oxazin-2-yl)propanoic acid], in that order: below 0.5 µM and 0.5 to 5 µM.
The corresponding values for `CCOc1nn(CC)cc1S(=O)(=O)N1C[C@H](CCC(=O)OC)Oc2ccc(/C=C/c3ccsc3)cc21` [Example 89L, (S,E)-methyl 3-(4-((3-ethoxy-1-ethyl-1H-pyrazol-4-yl)sulfonyl)-6-(2-(thiophen-3-yl)vinyl)-3,4-dihydro-2H-benzo[b][1,4]oxazin-2-yl)propanoate] are below 0.5 µM and 0.5 to 5 µM.
Regarding `CCOc1nn(CC)cc1S(=O)(=O)N1C[C@H](CCC(=O)O)Oc2ccc(/C=C/c3nccnc3Cl)cc21` [Example 89M, (S,E)-3-(6-(2-(3-chloropyrazin-2-yl)vinyl)-4-((3-ethoxy-1-ethyl-1H-pyrazol-4-yl)sulfonyl)-3,4-dihydro-2H-benzo[b][1,4]oxazin-2-yl)propanoic acid], the EC50 at RORγ-LBD and on Gal4-RORγ-LBD was above 10 µM each time.
For the compound `CCOc1nn(CC)cc1S(=O)(=O)N1C[C@H](CCC(=O)OC)Oc2ccc(/C=C/c3nccnc3Cl)cc21` [Example 89N, (S,E)-methyl 3-(6-(2-(3-chloropyrazin-2-yl)vinyl)-4-((3-ethoxy-1-ethyl-1H-pyrazol-4-yl)sulfonyl)-3,4-dihydro-2H-benzo[b][1,4]oxazin-2-yl)propanoate], the EC50 at RORγ-LBD was 5 to 10 µM; on Gal4-RORγ-LBD, above 10 µM.
`CCOc1nn(CC)cc1S(=O)(=O)N1C[C@H](CCC(=O)O)Oc2ccc(/C=C/c3cccs3)cc21` [Example 89O, (S,E)-3-(4-((3-ethoxy-1-ethyl-1H-pyrazol-4-yl)sulfonyl)-6-(2-(thiophen-2-yl)vinyl)-3,4-dihydro-2H-benzo[b][1,4]oxazin-2-yl)propanoic acid]: the EC50 at RORγ-LBD was below 0.5 µM; on Gal4-RORγ-LBD, above 10 µM.
The corresponding values for `CCOc1nn(CC)cc1S(=O)(=O)N1C[C@H](CCC(=O)OC)Oc2ccc(/C=C/c3cccs3)cc21` [Example 89P, (S,E)-methyl 3-(4-((3-ethoxy-1-ethyl-1H-pyrazol-4-yl)sulfonyl)-6-(2-(thiophen-2-yl)vinyl)-3,4-dihydro-2H-benzo[b][1,4]oxazin-2-yl)propanoate] are 0.5 to 5 µM and above 10 µM.
With `CCOc1nn(CC)cc1S(=O)(=O)N1C[C@H](CCC(=O)O)Oc2ccc(/C=C/c3nccs3)cc21` [Example 89Q, (S,E)-3-(4-((3-ethoxy-1-ethyl-1H-pyrazol-4-yl)sulfonyl)-6-(2-(thiazol-2-yl)vinyl)-3,4-dihydro-2H-benzo[b][1,4]oxazin-2-yl)propanoic acid], the concentration giving a half-maximal response (EC50) at RORγ-LBD and on Gal4-RORγ-LBD was above 10 µM throughout.
As to `CCOc1nn(CC)cc1S(=O)(=O)N1C[C@H](CCC(=O)OC)Oc2ccc(/C=C/c3nccs3)cc21` [Example 89R, (S,E)-methyl 3-(4-((3-ethoxy-1-ethyl-1H-pyrazol-4-yl)sulfonyl)-6-(2-(thiazol-2-yl)vinyl)-3,4-dihydro-2H-benzo[b][1,4]oxazin-2-yl)propanoate], the concentration giving a half-maximal response (EC50) was 5 to 10 µM on RORγ-LBD and above 10 µM at Gal4-RORγ-LBD.
For `CCOc1nn(CC)cc1S(=O)(=O)N1C[C@H](CCC(=O)O)Oc2ccc(/C=C/c3cccc(OC)n3)cc21` [Example 89S, (S,E)-3-(4-((3-ethoxy-1-ethyl-1H-pyrazol-4-yl)sulfonyl)-6-(2-(6-methoxypyridin-2-yl)vinyl)-3,4-dihydro-2H-benzo[b][1,4]-oxazin-2-yl)propanoic acid], in that order: 0.5 to 5 µM and above 10 µM.
The corresponding values for `CCOc1nn(CC)cc1S(=O)(=O)N1C[C@H](CCC(=O)OC)Oc2ccc(/C=C/c3cccc(OC)n3)cc21` [Example 89T, (S,E)-methyl 3-(4-((3-ethoxy-1-ethyl-1H-pyrazol-4-yl)-sulfonyl)-6-(2-(6-methoxypyridin-2-yl)vinyl)-3,4-dihydro-2H-benzo[b][1,4]-oxazin-2-yl)propanoate] are above 10 µM and above 10 µM.
The corresponding values for `CCOc1nn(CC)cc1S(=O)(=O)N1C[C@H](CCC(=O)O)Oc2ccc(/C=C/c3ncccc3F)cc21` [Example 89W, (S,E)-3-(4-((3-ethoxy-1-ethyl-1H-pyrazol-4-yl)sulfonyl)-6-(2-(3-fluoropyridin-2-yl)vinyl)-3,4-dihydro-2H-benzo[b][1,4]-oxazin-2-yl)propanoic acid] are 5 to 10 µM and above 10 µM.
In the case of `CCOc1nn(CC)cc1S(=O)(=O)N1C[C@H](CCC(=O)OC)Oc2ccc(/C=C/c3ncccc3F)cc21` [Example 89X, (S,E)-methyl 3-(4-((3-ethoxy-1-ethyl-1H-pyrazol-4-yl)-sulfonyl)-6-(2-(3-fluoropyridin-2-yl)vinyl)-3,4-dihydro-2H-benzo[b][1,4]oxazin-2-yl)propanoate], the 50% effective concentration (EC50) on RORγ-LBD was 0.5 to 5 µM; at Gal4-RORγ-LBD, above 10 µM.
Turning to `COC(=O)CC[C@H]1CN(S(=O)(=O)c2cccc(C(F)(F)F)c2)c2cc(C=C3CCCCC3)ccc2O1` [Example 90, Methyl (S)-3-(6-(cyclohexylidenemethyl)-4-((3-(trifluoromethyl)phenyl)sulfonyl)-3,4-dihydro-2H-benzo[b][1,4]oxazin-2-yl)propanoate], the EC50 on RORγ-LBD was below 0.5 µM; at Gal4-RORγ-LBD it was 0.5 to 5 µM.
The corresponding values for `O=C(O)CC[C@H]1CN(S(=O)(=O)c2cccc(C(F)(F)F)c2)c2cc(C=C3CCCCC3)ccc2O1` [Example 91, (S)-3-(6-(Cyclohexylidenemethyl)-4-((3-(trifluoromethyl)phenyl)sulfonyl)-3,4-dihydro-2H-benzo[b][1,4]oxazin-2-yl)propanoic acid] are below 0.5 µM and 0.5 to 5 µM.
Turning to `O=C(O)CC[C@H]1CN(S(=O)(=O)c2cccc(C(F)(F)F)c2)c2cc(C=C3CCCC3)ccc2O1` [Example 92, (S)-3-(6-(Cyclopentylidenemethyl)-4-((3-(trifluoromethyl)phenyl)sulfonyl)-3,4-dihydro-2H-benzo[b][1,4]oxazin-2-yl)propanoic acid], the EC50 was below 0.5 µM on RORγ-LBD and 0.5 to 5 µM on Gal4-RORγ-LBD.
The corresponding values for `O=C(O)CC[C@H]1CN(S(=O)(=O)c2cccc(C(F)(F)F)c2)c2cc(CC3CCCCC3)ccc2O1` [Example 93, (S)-3-(6-(Cyclohexylmethyl)-4-((3-(trifluoromethyl)phenyl)sulfonyl)-3,4-dihydro-2H-benzo[b][1,4]oxazin-2-yl)propanoic acid] are below 0.5 µM and 0.5 to 5 µM.
